Results taken from ChEMBL document CHEMBL5096222, “Discovery of a Trifluoromethoxy Cyclopentanone Benzothiazole Receptor-Interacting Protein Kinase 1 Inhibitor as the Treatment for Alzheimer's Disease” (J Med Chem, 2022).
Calls of active or inactive are those of the source. No cut-off for these calls is given here.

What was measured:
[1] = Cytotoxicity against mouse primary neurons assessed as reduction in cell viability at 0.256 to […] by celltiter-glo luminescent cell viability assay; assay type: toxicity, cell-based; conditions: neuron, dose 0.256-[…]
Mus musculus [2] = assay: Antialzheimer activity against STZ induced C57BL/6 mouse model of cognitive dysfunction assessed as reduction in latency at 1 mg/kg, IG administered once daily for 7 days; assay type: functional, organism-based; conditions: time 7.0 day
[3] = Toxicity in C57BL/6 mouse assessed as effect on kidney by H and E staining based analysis; assay type: tissue-based; conditions: in vivo
HT-29 [4] = assay: Inhibition of TSZ induced RIPK1-RIPK3 necrosome formation in human HT-29 cells at 1 uM measured after 6 hrs by immunoblot analysis; assay type: functional, cell-based
Mus musculus [5] = assay: Anti-necroptosis activity against TNFalpha-induced C57BL/6 mouse model of systemic inflammatory response syndrome assessed as reduction in IL-6 level administered IG pretreated for 1 hr followed by TNFalpha stimulation for 2 hrs; assay type: functional, organism-based; conditions: dose 10-40 mg/kg, time 3.0 hrs, DDE = dose-dependent effect
Mus musculus [6] = species: Mus musculus; assay: Antialzheimer activity against STZ induced C57BL/6 mouse assessed as decrease in p-RIPK3/RIPK3 ratio in frontal cortex; assay type: functional, organism-based
[7] = biological target: T1, Receptor-interacting serine/threonine-protein kinase 1 (Homo sapiens) (UniProt Q13546); assay: Inhibition of RIPK1 in human HT-29 cells assessed as reduction in TSZ induced necroptosis pretreated with compound followed by TSZ stimulation for 8 hrs by celltiter-glo luminescent cell viability assay; assay type: cell-based; conditions: dose 0.4-50 nM, DDE = dose-dependent effect
T1 sequence (whole entry): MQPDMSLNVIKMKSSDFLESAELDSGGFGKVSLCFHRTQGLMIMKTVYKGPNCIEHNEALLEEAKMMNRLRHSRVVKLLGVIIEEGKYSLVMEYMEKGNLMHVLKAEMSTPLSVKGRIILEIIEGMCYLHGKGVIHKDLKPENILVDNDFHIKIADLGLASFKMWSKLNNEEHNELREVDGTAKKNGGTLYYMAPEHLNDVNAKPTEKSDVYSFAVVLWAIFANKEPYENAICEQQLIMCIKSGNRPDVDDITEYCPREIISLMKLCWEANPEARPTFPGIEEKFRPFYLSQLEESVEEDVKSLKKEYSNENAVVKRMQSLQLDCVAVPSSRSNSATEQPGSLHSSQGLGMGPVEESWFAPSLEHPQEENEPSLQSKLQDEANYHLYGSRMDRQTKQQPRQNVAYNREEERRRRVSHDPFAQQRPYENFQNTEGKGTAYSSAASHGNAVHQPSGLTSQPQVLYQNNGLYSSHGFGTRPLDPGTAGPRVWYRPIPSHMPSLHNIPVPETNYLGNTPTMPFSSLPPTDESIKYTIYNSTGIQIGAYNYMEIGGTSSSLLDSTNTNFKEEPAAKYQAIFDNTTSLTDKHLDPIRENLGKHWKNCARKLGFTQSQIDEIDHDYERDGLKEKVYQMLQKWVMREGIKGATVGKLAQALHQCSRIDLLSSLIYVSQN

Mus musculus [8] = assay: Antialzheimer activity against STZ induced C57BL/6 mouse model of cognitive dysfunction assessed as increase in central distance of mouse at 1 mg/kg, IG administered once daily for 7 days; assay type: functional, organism-based; conditions: time 7.0 day
[9] = Toxicity in C57BL/6 mouse assessed as effect on heart by H and E staining based analysis; assay type: tissue-based; conditions: in vivo
[10] = biological target: T2, Receptor-interacting serine/threonine-protein kinase 3 (Homo sapiens, UniProt Q9Y572); assay: Inhibition of RIPK3 phosphorylation in TSZ induced human HT-29 cells at 1 uM pretreated with compound followed by TSZ stimulation upto 6 hrs by immunoblotting analysis; assay type: cell-based
Target sequence in this assay (Q9Y572 whole entry, looked up): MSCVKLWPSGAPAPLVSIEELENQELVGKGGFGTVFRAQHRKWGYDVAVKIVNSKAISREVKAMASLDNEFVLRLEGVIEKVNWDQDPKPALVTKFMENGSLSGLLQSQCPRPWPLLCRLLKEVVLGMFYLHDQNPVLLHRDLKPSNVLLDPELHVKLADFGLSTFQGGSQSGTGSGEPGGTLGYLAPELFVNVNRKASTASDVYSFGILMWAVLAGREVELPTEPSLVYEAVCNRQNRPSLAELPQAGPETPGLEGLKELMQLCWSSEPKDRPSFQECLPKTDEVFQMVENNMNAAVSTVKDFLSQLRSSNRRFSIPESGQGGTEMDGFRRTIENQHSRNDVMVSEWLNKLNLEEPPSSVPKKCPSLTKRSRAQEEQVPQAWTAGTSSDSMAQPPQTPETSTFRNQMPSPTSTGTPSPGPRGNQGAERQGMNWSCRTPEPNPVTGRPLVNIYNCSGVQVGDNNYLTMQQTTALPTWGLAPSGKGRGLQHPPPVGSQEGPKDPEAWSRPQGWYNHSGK

Mus musculus [11] = species: Mus musculus; assay: Antialzheimer activity against STZ induced C57BL/6 mouse assessed as decrease in p-RIPK1/RIPK1 ratio in frontal cortex; assay type: functional, organism-based
Mus musculus [12] = assay: Antialzheimer activity against STZ induced C57BL/6 mouse model of cognitive dysfunction assessed as increase in number of active avoidance time at 1 mg/kg, IG administered once daily and measured for 4 days by active avoidance test; assay type: functional, organism-based; conditions: time 4.0 day
HT-29 [13] = assay: Anti-necroptotic activity in TSZ induced human HT-29 cells assessed as increase in cell viability pretreated with compound followed by TSZ stimulation and measured after 16 hrs by celltiter-glo luminescent cell viability assay; assay type: functional, cell-based
Mus musculus [14] = species: Mus musculus; assay: Antialzheimer activity against STZ induced C57BL/6 mouse model of cognitive dysfunction assessed as decrease of TNF-alpha expression in hippocampus; assay type: functional, organism-based
[15] = biological target: T1, Receptor-interacting serine/threonine-protein kinase 1 (Homo sapiens); assay: Inhibition of RIPK1 phosphorylation in TSZ induced human HT-29 cells at 1 uM pretreated with compound followed by TSZ stimulation upto 6 hrs by immunoblotting analysis relative to control; assay type: cell-based
Mus musculus [16] = species: Mus musculus; assay: Antialzheimer activity against STZ induced C57BL/6 mouse model of cognitive dysfunction assessed as decrease of TNF-alpha expression in frontal cortex; assay type: functional, organism-based
[17] = Toxicity in C57BL/6 mouse assessed as effect on lungs by H and E staining based analysis; conditions: in vivo
Mus musculus [18] = assay: Anti-necroptosis activity against TNFalpha-induced C57BL/6 mouse model of systemic inflammatory response syndrome assessed as reduction in IL-1 beta level administered IG pretreated for 1 hr followed by TNFalpha stimulation for 2 hrs; assay type: functional, organism-based; conditions: dose 10-40 mg/kg, time 3.0 hrs, DDE = dose-dependent effect
[19] = Toxicity in C57BL/6 mouse assessed as effect on spleen by H and E staining based analysis; assay type: tissue-based; conditions: in vivo
[20] = Toxicity in C57BL/6 mouse assessed as effect on liver by H and E staining based analysis; assay type: tissue-based; conditions: in vivo
[21] = biological target: T2, Receptor-interacting serine/threonine-protein kinase 3; assay: Binding affinity to recombinant human wild type partial length RIPK3 (M1 to Q307 residues) expressed in bacterial expression system by KINOMEscan TM assay
Target sequence in this assay (Q9Y572 whole entry): as the sequence (Q9Y572 whole entry, looked up) above

Mus musculus [22] = species: Mus musculus; assay: Antialzheimer activity against STZ induced C57BL/6 mouse assessed as decrease in p-RIPK1/RIPK1 ratio in hippocampus; assay type: functional, organism-based
[23] = biological target: T3, Receptor-interacting serine/threonine-protein kinase 1 (Homo sapiens, UniProt Q13546); assay: Binding affinity to recombinant human wild type partial length RIPK1 (M1 to K305 residues) expressed in bacterial expression system by KINOMEscan TM assay
T3 sequence (Q13546 whole entry): T1 sequence (whole entry)

Mus musculus [24] = species: Mus musculus; assay: Antialzheimer activity against STZ induced C57BL/6 mouse model of cognitive dysfunction assessed as decrease in p-Tau level in hippocampus by Western blot analysis; assay type: functional, organism-based
[25] = biological target: T1, Receptor-interacting serine/threonine-protein kinase 1 (Homo sapiens); assay: Inhibition of RIPK1 in human HT-29 cells assessed as reduction in TSZ induced necroptosis at 25 to 50 nM pretreated with compound followed by TSZ stimulation for 8 hrs by celltiter-glo luminescent cell viability assay relative to control; assay type: cell-based; conditions: dose 25-50 nM
Mus musculus [26] = assay: Antialzheimer activity against STZ induced C57BL/6 mouse model of cognitive dysfunction assessed as prolonged exploration time for new objects at 1 mg/kg, IG administered once daily for 7 days by novel object recognition test; assay type: functional, organism-based; conditions: time 7.0 day
Mus musculus [27] = assay: Antialzheimer activity against STZ induced C57BL/6 mouse model of cognitive dysfunction assessed as increase in percentage of quadrant time at 1 mg/kg, IG administered once daily for 7 days; assay type: functional, organism-based; conditions: time 7.0 day
Mus musculus [28] = species: Mus musculus; assay: Antialzheimer activity against STZ induced C57BL/6 mouse assessed as decrease in p-RIPK3/RIPK3 ratio in hippocampus; assay type: functional, organism-based
Mus musculus [29] = species: Mus musculus; assay: Antialzheimer activity against STZ induced C57BL/6 mouse model of cognitive dysfunction assessed as restoration of hippocampal cell number by Nissl staining based analysis; assay type: functional, organism-based

## O=C1CC(C(=O)Nc2nc3cc(Oc4ccc(F)c(NC(=O)Cc5cccc(OC(F)(F)F)c5)c4)c(F)cc3s2)C1
[1]
  Activity: Non-Toxic
Mus musculus [2]
  Activity: Active
[3]
  Activity: Non-Toxic
HT-29 [4]
  inhibition: Active
Mus musculus [5]
  Activity: Dde
Mus musculus [6]
  Activity: Active
[7]
  inhibition: Dde
Mus musculus [8]
  Activity: Active
[9]
  Activity: Non-Toxic
[10]
  inhibition: Active
Mus musculus [11]
  Activity: Active
Mus musculus [12]
  Activity: Active
HT-29 [13]
  EC50: 2 nM
Mus musculus [14]
  Activity: Active
[15]
  inhibition: 100%
Mus musculus [16]
  Activity: Active
[17]
  Activity: Non-Toxic
Mus musculus [18]
  Activity: Dde
[19]
  Activity: Non-Toxic
[20]
  Activity: Non-Toxic
[21]
  Kd: > 5000 nM
Mus musculus [22]
  Activity: Active
[23]
  Kd: 8.6 nM
Mus musculus [24]
  Activity: Active
[25]
  inhibition: 100%
Mus musculus [26]
  Activity: Active
Mus musculus [27]
  Activity: Active
Mus musculus [28]
  Activity: Active
Mus musculus [29]
  Activity: Active
